In ChEMBL document CHEMBL5465560, “Selectivity Literature for EUbOPEN Chemogenomic Library” (2024):

Assays:
[1] = biological target: Protein arginine N-methyltransferase 3 (Homo sapiens, UniProt O60678); details: at 1 µM
[2] = biological target: Platelet-derived growth factor receptor alpha (Homo sapiens, UniProt P16234); assay: Selectivity interaction (KinomeScan (DiscoverX)) EUB0000229b PDGFRA; details: at 10 µM
[3] = biological target: Serine/threonine-protein kinase PAK 1 (Homo sapiens) (UniProt Q13153); assay: Selectivity interaction (KinomeScan (DiscoverX)) EUB0001079a PAK1; details: at 1 µM
[4] = biological target: RAC-gamma serine/threonine-protein kinase (Homo sapiens, UniProt Q9Y243); assay: Selectivity interaction (Kinase panel (DSF assay)) EUB0001558a AKT3
[5] = biological target: T1, Serine/threonine-protein kinase NLK (Homo sapiens) (UniProt Q9UBE8); details: at 10 µM
T1 sequence (whole entry): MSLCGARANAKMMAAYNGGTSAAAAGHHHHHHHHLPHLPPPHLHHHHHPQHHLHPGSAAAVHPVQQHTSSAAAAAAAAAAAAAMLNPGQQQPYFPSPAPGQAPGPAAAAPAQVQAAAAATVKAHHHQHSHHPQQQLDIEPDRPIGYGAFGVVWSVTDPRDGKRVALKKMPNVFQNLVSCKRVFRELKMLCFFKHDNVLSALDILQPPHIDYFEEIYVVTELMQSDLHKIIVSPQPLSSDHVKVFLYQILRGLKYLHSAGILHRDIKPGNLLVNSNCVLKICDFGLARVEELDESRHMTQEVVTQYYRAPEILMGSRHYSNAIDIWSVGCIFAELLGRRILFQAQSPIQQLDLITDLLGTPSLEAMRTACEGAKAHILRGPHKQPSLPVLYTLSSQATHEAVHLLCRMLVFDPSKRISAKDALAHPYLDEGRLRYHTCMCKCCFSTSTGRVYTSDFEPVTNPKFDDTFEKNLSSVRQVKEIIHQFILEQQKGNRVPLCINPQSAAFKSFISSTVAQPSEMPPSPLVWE

[6] = biological target: Mitogen-activated protein kinase 14 (Homo sapiens, UniProt Q16539); assay: Selectivity interaction (ActivX KiNativ screen (kinase selectivity in THP-1 cell lysates)) EUB0000639a MAPK14; format: subcellular; details: lysate
[7] = biological target: Macrophage-stimulating protein receptor (Homo sapiens, UniProt Q04912); assay: Selectivity interaction (KinomeScan (DiscoverX)) EUB0000595a MST1R; details: at 10 µM
[8] = biological target: T2, Cyclin-dependent kinase 11A (Homo sapiens) (UniProt Q9UQ88); assay: Selectivity interaction (KinomeScan (DiscoverX)) EUB0000045b CDK11A; details: at 10 µM
T2 sequence (whole entry): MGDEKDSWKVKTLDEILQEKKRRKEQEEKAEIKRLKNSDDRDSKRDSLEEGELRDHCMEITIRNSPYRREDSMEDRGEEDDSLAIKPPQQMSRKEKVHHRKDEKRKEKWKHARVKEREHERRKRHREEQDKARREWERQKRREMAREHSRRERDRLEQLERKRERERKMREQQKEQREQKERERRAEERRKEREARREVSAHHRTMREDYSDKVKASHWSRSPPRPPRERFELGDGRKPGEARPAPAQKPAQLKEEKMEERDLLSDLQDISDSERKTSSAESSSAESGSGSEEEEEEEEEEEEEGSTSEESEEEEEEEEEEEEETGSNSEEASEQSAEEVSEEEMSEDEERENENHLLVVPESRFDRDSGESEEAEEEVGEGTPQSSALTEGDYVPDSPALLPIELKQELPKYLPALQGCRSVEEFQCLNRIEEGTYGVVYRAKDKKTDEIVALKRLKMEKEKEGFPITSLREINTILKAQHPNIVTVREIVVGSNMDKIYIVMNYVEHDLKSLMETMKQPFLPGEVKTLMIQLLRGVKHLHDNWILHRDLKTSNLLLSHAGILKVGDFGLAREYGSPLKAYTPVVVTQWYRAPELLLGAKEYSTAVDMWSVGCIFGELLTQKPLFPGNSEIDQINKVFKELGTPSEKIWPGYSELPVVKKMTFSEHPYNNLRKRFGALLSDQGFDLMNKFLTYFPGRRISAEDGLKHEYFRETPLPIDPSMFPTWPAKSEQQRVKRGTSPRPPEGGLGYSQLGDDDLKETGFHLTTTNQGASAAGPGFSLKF

[9] = biological target: T3, Serine/threonine-protein kinase Nek11 (Homo sapiens) (UniProt Q8NG66); assay: Selectivity interaction (KinomeScan (DiscoverX)) EUB0000655a NEK11; details: at 10 µM
T3 sequence (whole entry): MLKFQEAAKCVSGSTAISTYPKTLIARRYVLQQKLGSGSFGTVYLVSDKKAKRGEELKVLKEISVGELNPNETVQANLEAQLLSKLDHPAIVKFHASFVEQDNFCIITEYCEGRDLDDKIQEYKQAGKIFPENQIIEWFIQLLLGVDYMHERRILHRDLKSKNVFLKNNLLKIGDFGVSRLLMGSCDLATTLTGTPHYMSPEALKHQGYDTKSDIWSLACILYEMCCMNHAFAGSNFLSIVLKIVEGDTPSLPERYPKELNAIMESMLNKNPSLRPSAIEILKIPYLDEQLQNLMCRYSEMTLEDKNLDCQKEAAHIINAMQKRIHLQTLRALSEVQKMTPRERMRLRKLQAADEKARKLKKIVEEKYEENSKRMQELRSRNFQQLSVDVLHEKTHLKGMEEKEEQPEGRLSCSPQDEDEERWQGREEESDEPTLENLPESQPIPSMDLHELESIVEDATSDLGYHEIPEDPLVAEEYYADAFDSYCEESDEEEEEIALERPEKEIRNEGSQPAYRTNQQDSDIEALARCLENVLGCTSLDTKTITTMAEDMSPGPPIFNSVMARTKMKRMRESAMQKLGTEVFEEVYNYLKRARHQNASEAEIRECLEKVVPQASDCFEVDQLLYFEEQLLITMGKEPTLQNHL

[10] = biological target: Serine/threonine-protein kinase RIO2 (Homo sapiens) (UniProt Q9BVS4); assay: Selectivity interaction (KinomeScan (DiscoverX)) EUB0000655a RIOK2; details: at 10 µM
D(2) dopamine receptor = D(2) dopamine receptor (Homo sapiens, UniProt P14416); assay: Selectivity interaction (Panel of kinases, GPCRs, ion channels and transporters (enzymatic assay)) EUB0000223bCl DRD2
Sequence of D(2) dopamine receptor (P14416 whole entry): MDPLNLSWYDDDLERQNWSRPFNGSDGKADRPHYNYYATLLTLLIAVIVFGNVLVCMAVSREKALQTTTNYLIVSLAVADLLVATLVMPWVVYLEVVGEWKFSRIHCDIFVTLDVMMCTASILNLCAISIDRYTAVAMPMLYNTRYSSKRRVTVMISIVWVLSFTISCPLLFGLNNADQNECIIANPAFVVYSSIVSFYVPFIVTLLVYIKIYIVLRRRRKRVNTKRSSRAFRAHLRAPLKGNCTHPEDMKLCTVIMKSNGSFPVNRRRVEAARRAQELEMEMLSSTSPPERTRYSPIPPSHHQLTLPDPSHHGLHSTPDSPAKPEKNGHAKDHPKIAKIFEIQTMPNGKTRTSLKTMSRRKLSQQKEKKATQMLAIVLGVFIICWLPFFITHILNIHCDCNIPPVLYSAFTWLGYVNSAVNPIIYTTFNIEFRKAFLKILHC

Sequence of Mitogen-activated protein kinase 14 (Q16539 whole entry): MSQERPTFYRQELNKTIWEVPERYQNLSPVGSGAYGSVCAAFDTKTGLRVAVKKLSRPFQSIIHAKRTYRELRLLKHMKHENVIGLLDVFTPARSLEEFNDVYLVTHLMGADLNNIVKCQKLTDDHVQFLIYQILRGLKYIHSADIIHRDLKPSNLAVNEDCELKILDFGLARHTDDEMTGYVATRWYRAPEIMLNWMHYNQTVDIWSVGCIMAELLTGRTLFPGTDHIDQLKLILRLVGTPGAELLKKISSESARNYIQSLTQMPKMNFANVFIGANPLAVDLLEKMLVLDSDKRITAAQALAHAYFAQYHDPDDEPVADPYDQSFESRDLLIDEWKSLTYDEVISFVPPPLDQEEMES
Sequence of Platelet-derived growth factor receptor alpha (P16234 whole entry): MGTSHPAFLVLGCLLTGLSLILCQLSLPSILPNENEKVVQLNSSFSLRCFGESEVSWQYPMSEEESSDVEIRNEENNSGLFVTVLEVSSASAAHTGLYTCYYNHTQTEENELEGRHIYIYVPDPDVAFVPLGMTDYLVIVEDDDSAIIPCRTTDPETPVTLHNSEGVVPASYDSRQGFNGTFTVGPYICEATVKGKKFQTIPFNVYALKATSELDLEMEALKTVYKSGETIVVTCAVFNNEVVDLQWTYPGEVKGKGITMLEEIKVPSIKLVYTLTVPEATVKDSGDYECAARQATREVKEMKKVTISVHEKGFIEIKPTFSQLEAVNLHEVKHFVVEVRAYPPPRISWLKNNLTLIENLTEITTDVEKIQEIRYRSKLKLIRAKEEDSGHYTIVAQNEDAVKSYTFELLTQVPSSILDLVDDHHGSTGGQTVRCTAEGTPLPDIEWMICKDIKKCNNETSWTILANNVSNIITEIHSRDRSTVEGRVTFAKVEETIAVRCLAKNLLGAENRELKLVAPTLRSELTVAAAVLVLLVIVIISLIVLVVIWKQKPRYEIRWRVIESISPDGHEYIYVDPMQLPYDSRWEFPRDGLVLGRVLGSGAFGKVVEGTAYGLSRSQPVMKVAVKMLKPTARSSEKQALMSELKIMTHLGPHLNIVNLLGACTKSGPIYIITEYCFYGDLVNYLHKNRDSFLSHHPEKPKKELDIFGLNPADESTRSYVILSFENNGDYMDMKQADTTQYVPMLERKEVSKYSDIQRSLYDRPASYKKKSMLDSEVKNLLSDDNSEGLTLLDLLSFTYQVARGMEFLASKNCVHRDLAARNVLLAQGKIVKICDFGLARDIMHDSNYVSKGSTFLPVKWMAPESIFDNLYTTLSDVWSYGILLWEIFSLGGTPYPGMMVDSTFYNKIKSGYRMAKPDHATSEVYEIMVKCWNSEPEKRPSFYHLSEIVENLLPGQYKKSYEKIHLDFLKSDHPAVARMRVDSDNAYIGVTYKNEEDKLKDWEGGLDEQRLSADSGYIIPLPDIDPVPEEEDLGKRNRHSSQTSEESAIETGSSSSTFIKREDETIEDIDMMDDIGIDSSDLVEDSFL
Sequence of Protein arginine N-methyltransferase 3 (O60678 2-531 limits assumed): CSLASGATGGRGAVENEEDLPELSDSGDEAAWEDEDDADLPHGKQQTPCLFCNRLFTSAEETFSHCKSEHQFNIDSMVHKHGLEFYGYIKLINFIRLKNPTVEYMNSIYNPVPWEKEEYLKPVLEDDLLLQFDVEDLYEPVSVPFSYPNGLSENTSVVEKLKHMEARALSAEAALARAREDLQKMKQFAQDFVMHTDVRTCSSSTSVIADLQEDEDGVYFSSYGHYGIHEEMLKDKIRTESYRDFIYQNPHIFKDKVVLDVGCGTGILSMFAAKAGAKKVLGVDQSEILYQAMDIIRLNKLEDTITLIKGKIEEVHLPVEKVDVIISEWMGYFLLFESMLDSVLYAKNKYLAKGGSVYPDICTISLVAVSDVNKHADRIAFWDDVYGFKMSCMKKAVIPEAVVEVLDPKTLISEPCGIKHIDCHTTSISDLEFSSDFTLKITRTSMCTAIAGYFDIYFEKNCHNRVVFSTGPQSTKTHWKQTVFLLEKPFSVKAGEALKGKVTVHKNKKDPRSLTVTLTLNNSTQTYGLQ
Sequence of Macrophage-stimulating protein receptor (Q04912 25-304 limits assumed): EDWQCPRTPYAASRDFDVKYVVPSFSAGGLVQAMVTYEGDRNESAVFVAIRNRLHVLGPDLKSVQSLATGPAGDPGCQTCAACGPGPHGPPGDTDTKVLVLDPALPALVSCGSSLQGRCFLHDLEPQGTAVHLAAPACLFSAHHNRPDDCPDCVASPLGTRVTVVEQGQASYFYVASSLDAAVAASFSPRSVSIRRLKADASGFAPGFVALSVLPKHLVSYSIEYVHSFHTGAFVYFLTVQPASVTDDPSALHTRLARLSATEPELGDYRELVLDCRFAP
Sequence of Macrophage-stimulating protein receptor (Q04912 310-1400 limits assumed): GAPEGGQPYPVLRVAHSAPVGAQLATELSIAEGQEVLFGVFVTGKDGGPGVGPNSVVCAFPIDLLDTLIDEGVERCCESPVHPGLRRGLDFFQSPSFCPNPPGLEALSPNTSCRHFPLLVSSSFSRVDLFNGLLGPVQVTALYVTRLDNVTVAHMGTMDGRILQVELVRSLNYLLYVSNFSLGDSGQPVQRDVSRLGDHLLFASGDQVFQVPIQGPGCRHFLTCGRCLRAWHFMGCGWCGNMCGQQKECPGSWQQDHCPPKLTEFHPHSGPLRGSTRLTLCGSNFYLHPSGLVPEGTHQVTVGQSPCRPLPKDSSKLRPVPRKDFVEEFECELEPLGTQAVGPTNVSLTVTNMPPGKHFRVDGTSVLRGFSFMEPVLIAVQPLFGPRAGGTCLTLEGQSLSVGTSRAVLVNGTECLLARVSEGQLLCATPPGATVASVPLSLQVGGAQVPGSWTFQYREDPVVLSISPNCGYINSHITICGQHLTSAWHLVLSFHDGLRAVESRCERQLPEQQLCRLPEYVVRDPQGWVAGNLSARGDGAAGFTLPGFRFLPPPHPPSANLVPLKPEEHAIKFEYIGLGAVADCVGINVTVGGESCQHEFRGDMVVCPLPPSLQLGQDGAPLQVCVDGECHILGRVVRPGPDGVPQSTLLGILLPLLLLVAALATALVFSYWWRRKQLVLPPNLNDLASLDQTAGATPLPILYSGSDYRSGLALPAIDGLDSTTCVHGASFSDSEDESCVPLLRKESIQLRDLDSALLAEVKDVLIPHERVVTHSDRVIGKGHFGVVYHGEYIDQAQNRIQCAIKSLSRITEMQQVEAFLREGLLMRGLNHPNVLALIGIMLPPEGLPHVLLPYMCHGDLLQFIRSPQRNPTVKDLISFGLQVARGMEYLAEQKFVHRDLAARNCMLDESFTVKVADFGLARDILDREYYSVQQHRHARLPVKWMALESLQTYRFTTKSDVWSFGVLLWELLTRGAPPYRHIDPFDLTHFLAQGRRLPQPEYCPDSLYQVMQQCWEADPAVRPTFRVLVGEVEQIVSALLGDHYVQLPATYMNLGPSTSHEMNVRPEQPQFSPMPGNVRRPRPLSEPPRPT
Sequence of RAC-gamma serine/threonine-protein kinase (Q9Y243 whole entry): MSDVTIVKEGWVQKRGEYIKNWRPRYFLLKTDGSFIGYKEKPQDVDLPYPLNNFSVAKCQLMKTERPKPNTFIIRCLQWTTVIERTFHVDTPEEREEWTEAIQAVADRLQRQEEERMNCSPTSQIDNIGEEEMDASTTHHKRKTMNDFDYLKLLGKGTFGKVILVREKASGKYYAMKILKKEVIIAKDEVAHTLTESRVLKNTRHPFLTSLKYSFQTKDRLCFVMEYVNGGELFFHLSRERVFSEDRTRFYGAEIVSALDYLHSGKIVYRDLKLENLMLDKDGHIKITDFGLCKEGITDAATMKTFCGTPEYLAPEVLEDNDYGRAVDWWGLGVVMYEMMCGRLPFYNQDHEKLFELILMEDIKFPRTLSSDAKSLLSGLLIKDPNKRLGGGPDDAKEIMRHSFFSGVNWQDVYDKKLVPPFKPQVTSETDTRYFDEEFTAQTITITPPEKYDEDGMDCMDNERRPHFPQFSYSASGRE
Sequence of Serine/threonine-protein kinase RIO2 (Homo sapiens) (Q9BVS4 whole entry, looked up): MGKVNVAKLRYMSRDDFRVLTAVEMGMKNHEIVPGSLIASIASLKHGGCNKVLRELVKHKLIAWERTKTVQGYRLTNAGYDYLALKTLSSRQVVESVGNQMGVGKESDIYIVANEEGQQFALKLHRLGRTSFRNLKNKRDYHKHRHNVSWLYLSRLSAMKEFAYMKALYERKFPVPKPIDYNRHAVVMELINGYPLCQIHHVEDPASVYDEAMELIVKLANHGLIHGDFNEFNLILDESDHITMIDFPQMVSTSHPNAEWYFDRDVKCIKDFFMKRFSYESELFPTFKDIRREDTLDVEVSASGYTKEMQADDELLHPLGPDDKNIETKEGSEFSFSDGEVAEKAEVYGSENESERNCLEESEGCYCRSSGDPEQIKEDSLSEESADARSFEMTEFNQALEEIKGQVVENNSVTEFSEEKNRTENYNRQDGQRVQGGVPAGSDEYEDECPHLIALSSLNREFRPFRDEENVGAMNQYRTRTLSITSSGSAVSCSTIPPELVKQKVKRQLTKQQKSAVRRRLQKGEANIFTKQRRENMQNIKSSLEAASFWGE

Compound `CNCCN1CCC(c2cc(CN(C)C(=O)c3cccc(Oc4ccccc4)c3)ccn2)CC1` has a % activity [1] greater than 90%.

`COc1cc(N(C)c2ccnc3ccc(C(F)(F)F)cc23)cc(OC)c1OC` was tested, and the % binding [2] was 98%.

Compound `Nc1cnc(N2CCc3cc(S(=O)(=O)Nc4c(F)cc(Cl)cc4F)cc(N4CCCC4=O)c32)nc1` [TP-020n] has a % of control [3] of 89%.

`CC(C)(O)[C@H](F)CN1Cc2cc(NC(=O)c3cnn4cccnc34)c(N3CCOCC3)cc2C1=O` showed a dTM [4] of 0.1 K.

With `CCN(CC)CCCCNc1ncc2cc(-c3cc(OC)cc(OC)c3)c(NC(=O)NC(C)(C)C)nc2n1` the % of control [5] was 100%.

Work on `CC[C@@H]1[C@H](F)C(=O)N[C@@H]1COc1nccc2cc(C(N)=O)c(OC)cc12` [ZIMLOVISERTIB] yielded a % of inhibition ([6]; at 0.01 µM) of 0.8%, a % of inhibition ([6]; at 0.04 µM) of 1.1% and a % of inhibition ([6]; at 0.2 µM) of 10.2%. It also gave a % of inhibition ([6]; at 1 µM) of 10.6% and a % of inhibition ([6]; at 5 µM) of 4.8%.

`COCC(=O)NC/C=C/c1ccc2ncnc(Nc3ccc(Oc4ccc(C)nc4)c(C)c3)c2c1` [CP-724714] gave a % of control [7] of 100%.

For `C=CC(=O)Nc1cc(-n2c(=O)ccc3cnc4ccc(-c5ccc(NS(C)(=O)=O)cc5)cc4c32)ccc1C`, the % of control [8] was 100%.

`CN(C)CCOc1ccc(-c2nc(-c3ccncc3)c(-c3ccc4c(c3)CC/C4=N\O)[nH]2)cc1` was tested, and the % of control [9] was 81% and the % of control [10] was 6%.

`COc1cc(C(=O)N2CC[C@@H](O)[C@@H](N)C2)cc2nc(-c3cc4ccccc4n3CC3CC3)n(C)c12` gave a pXC50 (D(2) dopamine receptor) of 4.6 M.
